Read-outs that look alike come from different tables or passages of the source. Values belong to the compound of their own block, whether it stands above or below them.
Columns and labels:
[1] = In vitro stability in human serum (LC/MS/MS); conditions: human
Method: Test compound is added to 1.5 mL human serum in a 96-wells deepwell plate in a final concentration of 750 nM. The compound is mixed and immediately thereafter a 100 μl sample is harvested in a 96-wells 2D-tuberack (T=0 sample). The 2 D-tubes are closed with rubber tube caps and the sample plate is stored at −20° CF. in the freezer. The deepwell plate is put into an incubator which was set at humidified (95%) atmosphere at 5-7% CO2 and 37° C. for an incubation period of maximum 240 h. During this incubation period, samples of 100 μl are collected on various time intervals, dependent on the test compound used; time points 0, 1, 2, 3, 6, 24, 48, 72 h in case of Kisspeptides and 0, 3, 6, 24, 48, 72, 168, 240 h in case of kisspeptide-pentasaccharide conjugates. Sample plates are put on ice in case of sampling and stored at −20° C. until analysis by LC/MS/MS.
For LC-MS/MS analysis, the compounds are separated over an XTerra RP8 column and using a gradient mobile phase of ammonium acetate buffer and acetonitrile at a fixed column temperature. MS/MS detection is done with a triple quadrupole mass spectrometer and employing negative ion electrospray ionization. The mass spectrometer is set up to achieve a known degree of in source fragmentation, where the initially formed multiply charged negative ions lose one or more SO3 molecules. The most abundant of these secondary ions are then subjected to a common MS/MS experiment in which a single SO3 loss is monitored. The Q1 and Q3 mass filter settings for this MS/MS experiment have commonly been determined in method development. […] Internal standardization is accomplished by adding a different conjugate of approximately the same size to the bioanalytical samples.
The rate of compound loss is expressed as a half-life (plasma t^1/2). The t^1/2 for the test compound can be determined by plotting the natural logarithm (In) of the measured concentrations against time and fitting the line through all data points. The gradient of this line is the first order rate constant (k) for substrate disappearance and is determined by regression analysis. The rate constant is converted to a half-life according to the following equation: In vitro half-life(t^1/2)=−ln 2/k

human KISS-receptor = molecular target: T1, human KISS-receptor (Homo sapiens, UniProt Q969F8); assay: NFAT-regulated luciferase reporter gene assay in CHO-k1 cells, agonist activity; type: cell-based
T1 construct: expressed in transfected cells; host or cells: CHO-k1 cells that also express mitochondrially targeted aequorin, Gα16 and an NFAT-luciferase reporter
Method: CHO-k1 cells were used that expressed the mitochondrially targeted aequorine and Gα16 (from Euroscreen, Brussels, Belgium), a Nuclear Factor of Activated T-cells-responsive element (NFAT) under the control of a promoter directing the expression of a firefly luciferase reporter gene (pNFAT-TALuc obtained from Clontech, Mountain View, Calif.), and the human GPR54-R Hygro(+)-hGPR54WT c4; MSD). These cells were cultured in Dulbecco's Modified Eagle Medium: Nutrient Mixture F-12 (DMEM/F12) (Invitrogen, Carlsbad, Calif.), supplemented with 10% (vol/vol) filtered bovine serum (Hyclone, Thermo Fisher Scientific, Waltham, Mass.), 100 U/ml penicillin G, 100 μg/ml streptomycin, 400 μg/ml Geneticin and 400 μg/ml Hygromycin (Invitrogen). […] Kisspeptin-10 was used as a standard. […] When the conjugates were tested in the presence of a final percentage of 20% human serum, 10 μl assay medium containing 60% human serum (Sigma-Aldrich, #H4522) was added to the wells. In the absence of human serum, 10 μl of assay medium was added. Cells were harvested and diluted to a concentration of 7.5E5 cells/ml in assay medium without 0.1% BSA. 10 μl of cell solution was added to the compound wells. After incubation for 4 hours in a humidified atmosphere at 5% CO2 and 37° C., the plate was left at room temperature for 30 minutes. Subsequently, 15 μl of Steadylite™ solution (PerkinElmer, Boston, Mass.) was added and the cells, protected from light, were allowed to lyse for 30 min at room temperature. Luminescence, indicated as relative luminescence units (RLU), was measured on an Envision Multilabel reader (PerkinElmer).

[2] = absence of human serum, read-out: pEC50 (converted)
[3] = presence of 20% human serum, read-out: pEC50 serum (converted)

T1 sequence (Q969F8 whole entry): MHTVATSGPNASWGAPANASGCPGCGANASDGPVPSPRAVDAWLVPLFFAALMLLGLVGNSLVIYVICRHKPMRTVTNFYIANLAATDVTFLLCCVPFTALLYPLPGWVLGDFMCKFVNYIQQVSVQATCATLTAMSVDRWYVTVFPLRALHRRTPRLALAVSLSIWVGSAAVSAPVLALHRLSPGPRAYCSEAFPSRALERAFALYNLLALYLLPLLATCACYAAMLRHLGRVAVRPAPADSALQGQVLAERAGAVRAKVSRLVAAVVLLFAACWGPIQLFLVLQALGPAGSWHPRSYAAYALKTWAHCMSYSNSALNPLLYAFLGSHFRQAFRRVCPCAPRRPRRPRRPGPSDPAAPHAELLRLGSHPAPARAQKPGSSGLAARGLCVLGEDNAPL

SMILES: CNC(=N)NCCC[C@H](NC(=O)[C@H](CC(C)C)NC(=O)NNC(=O)[C@H](Cc1ccccc1)NC(=O)[C@@H](NC(=O)[C@H](CC(N)=O)NC(=O)[C@H](Cc1c[nH]c2ccccc12)NC(=O)[C@H](CC(N)=O)NC(=O)[C@@H](Cc1ccc(O)cc1)NC(=O)CCOCCOCCOCCOCCn1cc(CCC(=O)NCCOCCOCCOCCO[C@H]2[C@H](OC)[C@@H](OC)[C@@H](O[C@H]3[C@H](OC)[C@@H](OC)[C@H](O[C@H]4[C@H](OS(=O)(=O)O)[C@@H](OS(=O)(=O)O)[C@@H](O[C@H]5[C@H](OC)[C@@H](OC)[C@H](O[C@H]6[C@H](OS(=O)(=O)O)[C@@H](OS(=O)(=O)O)[C@@H](OC)O[C@@H]6COS(=O)(=O)O)O[C@H]5C(=O)O)O[C@@H]4COS(=O)(=O)O)O[C@@H]3C(=O)O)O[C@@H]2COS(=O)(=O)O)nn1)C(C)O)C(=O)N[C@@H](Cc1ccccc1)C(N)=O (some centres unmarked) [Conjugate C11]
- half-life at 750 nM [1]: > 240 h

SMILES: CNC(=N)NCCC[C@H](NC(=O)[C@H](CC(C)C)n1cc(CNC(=O)[C@H](Cc2ccccc2)NC(=O)[C@@H](NC(=O)[C@H](CC(N)=O)NC(=O)[C@H](Cc2c[nH]c3ccccc23)NC(=O)[C@H](CC(N)=O)NC(=O)[C@@H](Cc2ccc(O)cc2)NC(=O)CCCCn2cc(CCC(=O)NCCOCCOCCOCCO[C@H]3[C@H](OC)[C@@H](OC)[C@@H](O[C@H]4[C@H](OC)[C@@H](OC)[C@H](O[C@H]5[C@H](OS(=O)(=O)O)[C@@H](OS(=O)(=O)O)[C@@H](O[C@H]6[C@H](OC)[C@@H](OC)[C@H](O[C@H]7[C@H](OC)[C@@H](OS(=O)(=O)O)[C@@H](OC)O[C@@H]7COS(=O)(=O)O)O[C@H]6C(=O)O)O[C@@H]5COS(=O)(=O)O)O[C@@H]4C(=O)O)O[C@@H]3COS(=O)(=O)O)nn2)[C@@H](C)O)nn1)C(=O)N[C@@H](Cc1ccccc1)C(N)=O [Conjugate C18]
- half-life at 750 nM [1]: 233 h

SMILES: CNC(=N)NCCC[C@H](NC(=O)[C@H](CC(C)C)n1cc(CNC(=O)[C@H](Cc2ccccc2)NC(=O)[C@@H](NC(=O)[C@H](CC(N)=O)NC(=O)[C@H](Cc2c[nH]c3ccccc23)NC(=O)[C@H](CC(N)=O)NC(=O)[C@@H](Cc2ccc(O)cc2)NC(=O)CCOCCOCCOCCOCCn2cc(CCC(=O)NCCOCCOCCOCCO[C@H]3[C@H](OC)[C@@H](OC)[C@@H](O[C@H]4[C@H](OC)[C@@H](OC)[C@H](O[C@H]5[C@H](OS(=O)(=O)O)[C@@H](OS(=O)(=O)O)[C@@H](O[C@H]6[C@H](OC)[C@@H](OC)[C@H](O[C@H]7[C@H](OC)[C@@H](OS(=O)(=O)O)[C@@H](OC)O[C@@H]7COS(=O)(=O)O)O[C@H]6C(=O)O)O[C@@H]5COS(=O)(=O)O)O[C@@H]4C(=O)O)O[C@@H]3COS(=O)(=O)O)nn2)[C@@H](C)O)nn1)C(=O)N[C@@H](Cc1ccccc1)C(N)=O [Conjugate C19]
- half-life at 750 nM [1]: 175 h

SMILES: CNC(=N)NCCC[C@H](NC(=O)[C@H](CC(C)C)n1cc(CNC(=O)[C@H](Cc2ccccc2)NC(=O)[C@@H](NC(=O)[C@H](CC(N)=O)NC(=O)[C@H](Cc2c[nH]c3ccccc23)NC(=O)[C@H](CC(N)=O)NC(=O)[C@@H](Cc2ccc(O)cc2)NC(=O)CCOCCOCCOCCOCCn2cc(CCC(=O)NCCOCCOCCOCCO[C@H]3[C@H](OC)[C@@H](OC)[C@@H](O[C@H]4[C@H](OC)[C@@H](OC)[C@H](O[C@H]5[C@H](OS(=O)(=O)O)[C@@H](OS(=O)(=O)O)[C@@H](O[C@H]6[C@H](OC)[C@@H](OC)[C@H](O[C@H]7[C@H](OS(=O)(=O)O)[C@@H](OS(=O)(=O)O)[C@@H](OC)O[C@@H]7COS(=O)(=O)O)O[C@H]6C(=O)O)O[C@@H]5COS(=O)(=O)O)O[C@@H]4C(=O)O)O[C@@H]3COS(=O)(=O)O)nn2)[C@@H](C)O)nn1)C(=O)N[C@@H](Cc1ccccc1)C(N)=O [Conjugate C20]
- half-life at 750 nM [1]: > 240 h

SMILES: CNC(=N)NCCC[C@H](NC(=O)[C@H](CC(C)C)NC(=O)NNC(=O)[C@H](Cc1ccccc1)NC(=O)[C@@H](NC(=O)[C@H](CC(N)=O)NC(=O)[C@H](Cc1c[nH]c2ccccc12)NC(=O)[C@H](CC(N)=O)NC(=O)[C@H](Cc1ccc(O)cc1)NC(=O)CCCCn1cc(CCC(=O)NCCOCCOCCOCCO[C@H]2[C@H](OC)[C@@H](OC)[C@@H](O[C@H]3[C@H](OC)[C@@H](OC)[C@H](O[C@H]4[C@H](OS(=O)(=O)O)[C@@H](OS(=O)(=O)O)[C@@H](O[C@H]5[C@H](OC)[C@@H](OC)[C@H](O[C@H]6[C@H](OS(=O)(=O)O)[C@@H](OS(=O)(=O)O)[C@@H](OC)O[C@@H]6COS(=O)(=O)O)O[C@H]5C(=O)O)O[C@@H]4COS(=O)(=O)O)O[C@@H]3C(=O)O)O[C@@H]2COS(=O)(=O)O)nn1)[C@@H](C)O)C(=O)N[C@@H](Cc1ccccc1)C(N)=O [Conjugate C22]
- half-life at 750 nM [1]: > 240 h

- EC50 (human KISS-receptor; [2]): 0.0427 nM
- EC50 (human KISS-receptor; [3]): 0.316 nM
SMILES: CO[C@H]1O[C@H](COS(=O)(=O)O)[C@@H](O[C@@H]2O[C@@H](C(=O)O)[C@@H](O[C@H]3O[C@H](COS(=O)(=O)O)[C@@H](O[C@@H]4O[C@H](C(=O)O)[C@@H](O[C@H]5O[C@H](COS(=O)(=O)O)[C@@H](OCCOCCOCCOCCNC(=O)CCc6cn(CCCCC(=O)N[C@H](Cc7ccc(O)cc7)C(=O)N7C[C@H](O)C[C@H]7C(=O)N[C@@H](CC(N)=O)C(=O)N[C@H](C(=O)N[C@@H](Cc7ccccc7)C(=O)NCC(=O)N[C@@H](CC(C)C)C(=O)N[C@@H](CCCNC(=N)N)C(=O)N[C@@H](Cc7c[nH]c8ccccc78)C(N)=O)[C@@H](C)O)nn6)[C@H](OC)[C@H]5OC)[C@H](OC)[C@H]4OC)[C@H](OS(=O)(=O)O)[C@H]3OS(=O)(=O)O)[C@H](OC)[C@H]2OC)[C@H](OC)[C@H]1OS(=O)(=O)O [Conjugate C38]

- EC50 (human KISS-receptor; [2]): 0.0646 nM
- EC50 (human KISS-receptor; [3]): 2.69 nM
SMILES: CO[C@H]1O[C@H](COS(=O)(=O)O)[C@@H](O[C@@H]2O[C@@H](C(=O)O)[C@@H](O[C@H]3O[C@H](COS(=O)(=O)O)[C@@H](O[C@@H]4O[C@H](C(=O)O)[C@@H](O[C@H]5O[C@H](COS(=O)(=O)O)[C@@H](OCCOCCOCCOCCNC(=O)CCc6cn(CCCCC(=O)N[C@H](Cc7ccc(O)cc7)C(=O)N7C[C@H](O)C[C@H]7C(=O)N[C@@H](CC(N)=O)C(=O)N[C@H](C(=O)N[C@@H](Cc7ccccc7)C(=O)NCC(=O)N[C@@H](CC(C)C)C(=O)N[C@@H](CCCNC(=N)N)C(=O)N[C@@H](Cc7c[nH]c8ccccc78)C(N)=O)[C@@H](C)O)nn6)[C@H](OC)[C@H]5OC)[C@H](OC)[C@H]4OC)[C@H](OS(=O)(=O)O)[C@H]3OS(=O)(=O)O)[C@H](OC)[C@H]2OC)[C@H](OS(=O)(=O)O)[C@H]1OS(=O)(=O)O [Conjugate C39]

SMILES: CO[C@H]1O[C@H](COS(=O)(=O)O)[C@@H](O[C@@H]2O[C@@H](C(=O)O)[C@@H](O[C@H]3O[C@H](COS(=O)(=O)O)[C@@H](O[C@@H]4O[C@H](C(=O)O)[C@@H](O[C@H]5O[C@H](COS(=O)(=O)O)[C@@H](OCCOCCOCCOCCNC(=O)CCc6cn(CCOCCOCCOCCOCCC(=O)N[C@@H](Cc7ccc(O)cc7)C(=O)N7C[C@H](O)C[C@H]7C(=O)N[C@@H](CC(N)=O)C(=O)N[C@H](C(=O)N[C@@H](Cc7ccccc7)C(=O)NNC(=O)N[C@@H](CC(C)C)C(=O)N[C@@H](CCCNC(=N)N)C(=O)N[C@@H](Cc7c[nH]c8ccccc78)C(N)=O)[C@@H](C)O)nn6)[C@H](OC)[C@H]5OC)[C@H](OC)[C@H]4OC)[C@H](OS(=O)(=O)O)[C@H]3OS(=O)(=O)O)[C@H](OC)[C@H]2OC)[C@H](OC)[C@H]1OS(=O)(=O)O [Conjugate C40]
- EC50 (human KISS-receptor; pEC50, absence of human serum): 0.347 nM
- EC50 (human KISS-receptor; pEC50 serum, presence of 20% human serum): 1.66 nM
